Active and inactive are the calls of the source. The rule behind the calls is not given here.
Key:
[1] = Vasorelaxant activity in rabbit aorta assessed as inhibition of KCl-induced contractile response at 100 uM; format: functional; conditions: Oryctolagus cuniculus
Oryctolagus cuniculus = organism: Oryctolagus cuniculus; test: Vasorelaxant activity in rabbit aorta assessed as inhibition of norepinephrine-induced contractile response at 100 uM; format: functional, tissue-based

In the case of `COc1cc(O)cc([C@@H]2OC[C@@H]3[C@H]2C(=O)O[C@H]3c2cc(O)c(OC)c(OC)c2)c1` [GRAMINONE B], the inhibition at 100 µM [1] is reported as 50% and the Activity (Oryctolagus cuniculus) is reported as “inactive”.
